Experimental data: publication PMC11722285, “Exploring the Potential of Malvidin and Echiodinin as Probable Antileishmanial Agents Through In Silico Analysis and In Vitro Efficacy” (Molecules, 2025)

Tests used:
Assay type in all cases: cell-based
[1] = tested on: L. amazonensis stationary promastigotes; test: In vitro antileishmanial activity, stationary promastigotes (MTT)
Method: (§1) L. amazonensis (IFLA/BR/1967/PH-8), L. braziliensis (MHOM/BR/1975/M2903), and L. infantum (MHOM/BR/1970/BH46) were used as parasites. Stationary promastigotes were grown at a 24 °C in complete Schneider’s medium (Sigma-Aldrich, St. Louis, MO, USA), which was composed of medium plus 20% (v/v) heat-inactivated fetal bovine serum (FBS; Sigma-Aldrich, USA) and 20 mM L-glutamine with a pH of 7.4 [139]. To obtain the axenic amastigotes, 10^9 stationary promastigotes were washed three times in sterile phosphate-buffered saline (PBS 1X and incubated in 5 mL FBS for 48 h (L. amazonensis and L. braziliensis) and 72 h (L. infantum), respectively, at 37 °C. Parasites were washed in cold PBS 1x, and their morphology was evaluated after staining using the Giemsa method in an optical microscope, as previously described.
(§2) AmpB (0 to 10.8 µM; Sigma-Aldrich, USA) was used as control. Cell viability was assessed through 3-(4.5-dimethylthiazol-2-yl)-2.5-diphenyl tetrazolium bromide (Sigma-Aldrich, USA) method. Optical density (OD) values were measured in a microplate spectrophotometer (Molecular Devices, Spectra Max Plus, San Jose, CA, USA) at 570 nm. IC50 values were calculated by sigmoidal regression of dose–response curves in Microsoft Excel software (version 10.0). Two-tailed Student’s t-tests (p < 0.05) were used to compare IC50 values between malvidin and echioidinin, assessing significant differences in inhibitory activity.

[2] = tested on: L. braziliensis stationary promastigotes; test: as above
Method: as §1, §2

[3] = tested on: L. infantum stationary promastigotes; test: as above
Method: as §1, §2

[4] = tested on: L. amazonensis axenic amastigotes; test: In vitro antileishmanial activity, axenic amastigotes (MTT)
Method: as §1, §2

[5] = tested on: L. braziliensis axenic amastigotes; test: as above
Method: as §1, §2

[6] = tested on: L. infantum axenic amastigotes; test: as above; settings: for Selectivity Index (SI) Axenic amastigotes L. infantum: ratio between CC50 (macrophages) and IC50
Method: as §1, §2

[7] = Cytotoxicity assay in macrophages (MTT); settings: mouse, murine macrophages, mean ± SD
Method: Cytotoxicity was evaluated ex vivo in murine macrophages and human red blood cells, for which concentrations inhibiting 50% of macrophages (CC50) and red blood cells (RBC50) were determined. […] Cells were incubated in RPMI 1640 medium for 48 h (murine macrophages) or 1 h (red blood cells) at 37 °C in 5% CO2. Macrophage viability was assessed using the MTT method. The red blood cell suspension was centrifuged at 1000× g for 10 min at 4 °C, after which the percentage of cell lysis was evaluated spectrophotometrically at 570 nm. The hemolysis was determined by replacing the natural products with an equal volume of phosphate-buffered saline with a pH of 7.4 (PBS—negative control) or distilled water (positive control). CC50 and RBC50 values were calculated by sigmoidal regression of dose–response curves in Microsoft Excel software (version 10.0). SI was calculated as the ratio between CC50 and IC50 values.

O+ human red blood cells = test: Hemolytic activity; settings: lysis of 50% of O+ human red blood cells; 1 h; mean ± SD
Method: Cytotoxicity was evaluated ex vivo in murine macrophages and human red blood cells, for which concentrations inhibiting 50% of macrophages (CC50) and red blood cells (RBC50) were determined. Briefly, murine cells (5 × 10^5) or a 5% human red blood cells suspension were incubated in the presence of malvidin (0 to 301.84 µM) or echioidinin (0 to 356.76 µM) AmpB (0 to 10.82 µM) was used as control. Cells were incubated in RPMI 1640 medium for 48 h (murine macrophages) or 1 h (red blood cells) at 37 °C in 5% CO2. Macrophage viability was assessed using the MTT method. The red blood cell suspension was centrifuged at 1000× g for 10 min at 4 °C, after which the percentage of cell lysis was evaluated spectrophotometrically at 570 nm. The hemolysis was determined by replacing the natural products with an equal volume of phosphate-buffered saline with a pH of 7.4 (PBS—negative control) or distilled water (positive control). CC50 and RBC50 values were calculated by sigmoidal regression of dose–response curves in Microsoft Excel software (version 10.0). SI was calculated as the ratio between CC50 and IC50 values.

[8] = tested on: L. amazonensis-infected murine macrophages; test: Treatment of infected macrophages; settings: 48 h
Method: (§3) To evaluate the efficacy of malvidin or echioidinin for treating infected macrophages, murine cells (5 × 10^5) were plated on round glass coverslips in 24-well plates in RPMI 1640 medium supplemented with 20% (v/v) FBS and 20 mM L-glutamine at a pH of 7.4 and incubated for 24 h at 37 °C in 5% CO2. Stationary promastigotes were added to the wells at a ratio of 10 parasites per macrophage, and cultures were incubated further for 48 h at 37 °C for 5% CO2. Free parasites were removed by extensive washing with RPMI 1640 medium, and infected macrophages were treated with malvidin (30.18, 60.37, and 120.74 µM), echioidinin (35.18, 70.36, and 140.72 µM), or AmpB (2.70 and 5.41 µM) for 48 h at […] in 5% CO2. After fixation with 4% paraformaldehyde, cells were washed and stained with Giemsa, and the infection percentage, the number of amastigotes per infected macrophage, and the reduction in the infection percentage were determined by counting 200 cells in triplicate, using an optical microscope.

[9] = tested on: L. braziliensis-infected murine macrophages; test: Treatment of infected macrophages; settings: 48 h
Method: as §3

[10] = tested on: L. infantum-infected murine macrophages; test: Treatment of infected macrophages; settings: 48 h
Method: as §3

[11] = ratio between CC50 (macrophages) and IC50

COc1cc(-c2[o+]c3cc(O)cc(O)c3cc2O)cc(OC)c1O [Malvidin, malvidin]
IC50 ([1]; Leishmania amazonensis, 48 h, read-out: IC50 (µM) Stationary Promastigotes L. amazonensis): 198 ± 17 µM
Selectivity Index (SI) Stationary Promastigotes L. amazonensis [1, 11]: 14.70
IC50 ([2]; Leishmania braziliensis, 48 h, read-out: IC50 (µM) Stationary Promastigotes L. braziliensis): 164 ± 19 µM
Selectivity Index (SI) Stationary Promastigotes L. braziliensis [2, 11]: 17.60
IC50 ([3]; Leishmania infantum, 48 h, read-out: IC50 (µM) Stationary Promastigotes L. infantum): 141 ± 26 µM
Selectivity Index (SI) Stationary Promastigotes L. infantum [3, 11]: 20.70
IC50 ([4]; Leishmania amazonensis, 48 h, read-out: IC50 (µM) Axenic amastigotes L. amazonensis): 258 ± 17 µM
Selectivity Index (SI) Axenic amastigotes L. amazonensis [4, 11]: 11.30
IC50 ([5]; Leishmania braziliensis, 48 h, read-out: IC50 (µM) Axenic amastigotes L. braziliensis): 227.9 ± 1 µM
Selectivity Index (SI) Axenic amastigotes L. braziliensis [5, 11]: 12.70
IC50 ([6]; Leishmania infantum, 48 h, read-out: IC50 (µM) Axenic amastigotes L. infantum): 174 ± 19 µM
Selectivity Index (SI) Axenic amastigotes L. infantum [6]: 16.70
Selectivity Index (SI) Axenic amastigotes L. infantum ([6]; listed as malvidin): 14.70
CC50 at 48 h [7]: 2920 ± 80 µM
RBC50 (O+ human red blood cells): 3120.13 ± 107 µM
Infection After Treatment (%) ([8]; 30.18 µM): 75.60%
Infectiveness Reduction (%) ([8]; 30.18 µM): 18.09%
Number of Amastigotes per Macrophage ([8]; 30.18 µM): 3.30
Infection After Treatment (%) ([8]; 60.37 µM): 61.10%
Infectiveness Reduction (%) ([8]; 60.37 µM): 33.80%
Number of Amastigotes per Macrophage ([8]; 60.37 µM): 2.80
Infection After Treatment (%) ([8]; 120.74 µM): 59.30%
Infectiveness Reduction (%) ([8]; 120.74 µM): 35.75%
Number of Amastigotes per Macrophage ([8]; 120.74 µM): 3.80
Infection After Treatment (%) ([9]; 30.18 µM): 52.10%
Infectiveness Reduction (%) ([9]; 30.18 µM): 24.16%
Number of Amastigotes per Macrophage ([9]; 30.18 µM): 4.40
Infection After Treatment (%) ([9]; 60.37 µM): 48.70%
Infectiveness Reduction (%) ([9]; 60.37 µM): 29.11%
Number of Amastigotes per Macrophage ([9]; 60.37 µM): 5.40
Infection After Treatment (%) ([9]; 120.74 µM): 39.80%
Infectiveness Reduction (%) ([9]; 120.74 µM): 42.07%
Number of Amastigotes per Macrophage ([9]; 120.74 µM): 3.30
Infection After Treatment (%) ([10]; 30.18 µM): 61.20%
Infectiveness Reduction (%) ([10]; 30.18 µM): 17.85%
Number of Amastigotes per Macrophage ([10]; 30.18 µM): 4.70
Infection After Treatment (%) ([10]; 60.37 µM): 55.60%
Infectiveness Reduction (%) ([10]; 60.37 µM): 25.37%
Number of Amastigotes per Macrophage ([10]; 60.37 µM): 3.70
Infection After Treatment (%) ([10]; 120.74 µM): 49.80%
Infectiveness Reduction (%) ([10]; 120.74 µM): 33.15%
Number of Amastigotes per Macrophage ([10]; 120.74 µM): 2.70
